Drawing on patent US5654420A, “Process for preparing 2'-cyano pyrimidine nucleoside compounds” (Sankyo Company, Limited, priority 1990, dated 1997), this text covers IC50 for 2 compounds.

In this assay the test system is KB human oral epidermoid carcinoma. Description: Antitumor activity in vitro (MTT method, 72 h), KB. Conditions: 37° C., read-out: IC50 (concentration necessary for inhibiting proliferation of the cells to 50%). Format: cell-based. On the procedure:
Antitumor activity was determined in vitro using a human cancer strain. As the culture medium for the cancer cell, an RPMI1640 solution containing 10% of […] bovine fetal serum 50 μg/ml of kanamycin was used. Cancer cells (1×10^4 cells/ml) were innoculated to 1 ml of the culture liquids containing samples at different concentrations, respectively, and cultured in a carbon dioxide gas incubator at 37° C. for 72 hours.
Viability of the cancer cells was determined by MTT method in which the amount of living cells in the culture liquids containing the sample and that in culture liquids containing no sample (blank group) are measured based on the intensity of the visible light using [3-(4,5-dimethylthiazol-2-yl)-2,5-diphenyl-tetrazolium bromide] which develops color in proportion to the number of living cells. The intensity of antitumor activity was expressed by IC50 value (concentration (μg/ml) necessary for inhibiting proliferation of the cells to 50%). The IC50 value was obtained from a graph illustrating the relationship between % proliferation of the cancer cells in the sample containing group (% relative to the blank group) and the concentration (logalithmic) of the sample.
KB: human oral epidermoid carcinoma

Converted amounts (≈) assume the structure as drawn. Counter-ions that a name gives are not always drawn.

As for `N#C[C@H]1[C@H](O)[C@@H](CO)O[C@H]1n1ccc(N)nc1=O` [Example 9, 1-(2'-Cyano-2'-deoxy-β-D-arabinofuranosyl)cytosine monohydrochloride], the IC50 is 15 µg/mL. To `Cc1cn([C@@H]2O[C@H](CO)C=C2C#N)c(=O)[nH]c1=O` [Example 12, 1-(2'-Cyano-2',3'-deoxy-2',3'-didehydro-β-D-ribofuranosyl)thymine] belongs 7.6 µg/mL (≈ 30.5 µM).
